Data: a melting point compilation (Tetko et al.; mined from patent text by program, amines drawn as free bases though some values may be those of a salt)

SMILES | melting point [°C]
Nc1cn(C2CCN(c3c(F)cc4c(=O)c(C(=O)O)cn(C5CC5)c4c3F)C2)nn1 (stereo not given) | 221
CC(=O)c1ccc(S(=O)(=O)Nc2ccon2)cc1 | 165 to 166
CCN(CC)CCNc1ccc(C)c2sc3ccc(OC)cc3c(=O)c12 | 81 to 82
NC(=O)c1c[nH]cc1-c1cccc(Cl)c1Cl | 185 to 190
CC(=O)N1CCn2c3c(c4cccc(c42)C1)CCCCCC3 | 41 to 44
O=C(OCc1ccccc1)C(O)N1C(=O)C2CC=CCC21 (stereo not given) | 92 to 93
CC(C)(O)C#Cc1ncn2c1[C@@H]1CCCN1C(=O)c1c(Cl)cccc1-2 | 234 to 235
CS(=O)(=O)c1ccc(-c2oc(CO)cc(=O)c2Oc2ccc(F)cc2)cc1 | 206
CCOCc1cccc2cc(C(N)=O)oc12 | 133 to 134
COc1ccc(C2=NN(C3CCN(C(=O)[C@H](C)N)CC3)C(=O)[C@@H]3CC=CC[C@H]23)cc1OC | 101 to 103
Cc1cc(I)c(C(N)=O)cc1C | 195 to 197
COc1ccc(C=CC(=O)OCCC(C)CCc2ccccc2)c(O)c1 (stereo not given) | 70 to 73
N#Cc1ccc(-n2c(=O)cc(C(F)(F)F)[nH]c2=O)cc1[N+](=O)[O-] | 135
CCC(C)(CC)c1ccc(NC(=O)c2c(OC)cccc2OC)nn1 | 145 to 147
Cc1cc(-n2cncn2)cc2c1NC(=O)CC2 | 258 to 259
CCSc1cc2ncc(C#N)c(Nc3cc(OC)c(Cl)cc3Cl)c2cc1OC | 212 to 214
Cc1ccc(S(=O)(=O)N2CCCC(S(=O)(=O)c3ccc(F)cc3)C2)cc1 (stereo not given) | 186
O=C(CCN1CCN(c2cccc(C(F)(F)F)c2)CC1)c1ccc2oc3ccc(C(=O)CCN4CCN(c5cccc(C(F)(F)F)c5)CC4)cc3c(=O)c2c1 | 166 to 167
N#Cc1nc(N)c(Cl)nc1C#N | 205 to 208
COc1cc2c(cc1OC)C1(CNC(=O)C1)CC2=O (stereo not given) | 193 to 195
CC(=O)SCC(Cc1ccccc1)C(=O)Nc1cc(C(=O)O)ccc1N1CCCCC1 (stereo not given) | 170 to 174
CN1CCN(C(=O)c2ccc([N+](=O)[O-])cc2[N+](=O)[O-])CC1 | 130 to 132
CCCCCCCCCCC(C)(C)C(=O)NC1CCCNC(=O)C1 (stereo not given) | 41 to 42
O=c1cc(-c2ccc(Cl)cc2)oc2ccc(OCCCCCCN3CCC(O)CC3)cc12 | 127 to 128
COc1cc(/C=C2/C(C)=C(CC(=O)O)c3cc(F)ccc32)cc(Br)c1OC | 164

SMILES | melting point [°C]
COc1c(-c2ccc(S(C)(=O)=O)cc2)cnn(-c2cccc(Cl)c2)c1=O | 112 to 114
Cn1nc(-c2ccccc2)nc1-c1cccnc1 | 97 to 98
Cc1cc(-c2ccc(-c3ccc(F)cc3)cc2)n[nH]c1=O | 247 to 248
CN(C)c1ccc(NC(=O)N(Cc2ccco2)C[C@@H]2CCC[C@H](CN(Cc3ccco3)C(=O)Nc3ccc(N(C)C)cc3)C2)cc1 | 68 to 73
O=[N+]([O-])c1sccc1-c1ccc(Cl)cc1 | 108 to 110
CC(Cl)CC(C)Oc1ccc(-c2ccc(C(=O)Oc3ccc(C#N)cc3)cc2)cc1 (stereo not given) | 104
CC(C)(C)OC(=O)Nc1cc(OCC#N)c(-c2ccc(F)cc2)cc1N | 118 to 119
CCCn1c(COCC)nc2c(N)nc3ccc(OC4CCN(C(=O)OC(C)(C)C)CC4)cc3c21 | 180 to 181
CC(=O)c1cccc(C2=C(c3ccc(S(N)(=O)=O)cc3)OC(C)(C)C2=O)c1 | 217 to 218
CSc1ccc(/C=C2/C(C)=C(CCCN(O)C(N)=O)c3cc(F)ccc32)cc1 | 145 to 147
CCOC(=O)c1cnc2n(c1=O)CCC(C)C2=NNc1ccccc1 (stereo not given) | 108 to 110
CC(C=Cc1ccccc1-c1cc2c(cc1C)C(C)(C)CCC2(C)C)=CC(=O)O | 181 to 182
CC1=C(C)CC(C(=O)O)OC1 (stereo not given) | 82 to 84
Cc1nc(-c2ccc(OCc3cccnc3)cc2)no1 | 55 to 56
COC1(c2cc(O)cc(F)c2)CCOC1 (stereo not given) | 136 to 137
N#CC1=C(Nc2cccc(F)c2)CCC1 | 98 to 100
O=C(CS(=O)Cc1ccco1)C12CC3CC(CC(C3)C1)C2 (stereo not given) | 75 to 79
COc1ccc(C(=O)c2c(N)sc(C)c2C)cc1OC | 172 to 173
Nc1nc(Cl)cc(Oc2ccc3c(c2)OCCN3C(=O)OCc2ccccc2)n1 | 161 to 163
CCOC(=O)C1=C(C)NC(C)=C(C(=O)OCC)C1c1ccccc1/C=C(\C)C(=O)O | 205 to 207
CCC1(CC)c2cc(C(=O)O)c(C(=O)O)cc2C(CC)(CC)N1C(=O)c1ccccc1 | 244 to 246
C=C(C)C(=O)N1c2ccccc2Sc2ccc(OC)cc21 | 91 to 92
COC(=O)C1Oc2ccccc2Cc2cccc(O)c2O1 (stereo not given) | 163 to 165
CC(=O)Nc1ccc(C(=N)Nc2cc(NC(=O)/C=C/c3ccccc3C(F)(F)F)c(F)cc2F)cc1 | 180 to 185
NC(=O)[C@@H]1[C@H](Nc2c(Br)cnc3[nH]c(-c4ccc(N5CCOCC5)nc4)nc23)[C@H]2C=C[C@@H]1C2 | 288 to 290
